Data as given in BigSolDB 2.1.

CP(=O)(c1ccccc1)c1ccccc1
Details | solubility (mole fraction)
in benzene, 288.52 K | 0.0439
in benzene, 293.56 K | 0.0573
in benzene, 298.13 K | 0.0698
in benzene, 303.21 K | 0.0875
in benzene, 308.12 K | 0.102
in benzene, 312.55 K | 0.123
in benzene, 318.04 K | 0.156
in benzene, 323.17 K | 0.183
in ethyl acetate, 293.25 K | 0.0415
in ethyl acetate, 298.46 K | 0.0497
in ethyl acetate, 302.88 K | 0.0618
in ethyl acetate, 307.97 K | 0.0744
in ethyl acetate, 313.22 K | 0.0885
in ethyl acetate, 317.25 K | 0.104
in ethyl acetate, 322.14 K | 0.128
in ethyl acetate, 326.93 K | 0.15
in ethylbenzene, 293.35 K | 0.0183
in ethylbenzene, 298.04 K | 0.0224
in ethylbenzene, 303.12 K | 0.0304
in ethylbenzene, 308.33 K | 0.0393
in ethylbenzene, 312.8 K | 0.0464
in ethylbenzene, 317.51 K | 0.061
in ethylbenzene, 321.25 K | 0.0719
in ethylbenzene, 326.39 K | 0.0876
in m-xylene, 293.75 K | 0.0129
in m-xylene, 298.16 K | 0.0167
in m-xylene, 303.32 K | 0.0216
in m-xylene, 307.41 K | 0.0258
in m-xylene, 313 K | 0.0332
in m-xylene, 317.53 K | 0.0398
in m-xylene, 320.55 K | 0.0453
in m-xylene, 326.39 K | 0.0614
in o-xylene, 293.35 K | 0.0281
in o-xylene, 298.08 K | 0.0343
in o-xylene, 303.11 K | 0.0406
in o-xylene, 308.23 K | 0.0454
in o-xylene, 313.09 K | 0.0525
in o-xylene, 317.05 K | 0.0603
in o-xylene, 321.94 K | 0.071
in o-xylene, 328.07 K | 0.0821
in p-xylene, 293.65 K | 0.0131
in p-xylene, 298.19 K | 0.0175
in p-xylene, 303.31 K | 0.0219
in p-xylene, 308.42 K | 0.03
in p-xylene, 313.11 K | 0.036
in p-xylene, 317.38 K | 0.0442
in p-xylene, 320.55 K | 0.0539
in p-xylene, 326.44 K | 0.0679
in toluene, 293.35 K | 0.0227
in toluene, 298.16 K | 0.0287
in toluene, 303.08 K | 0.0386
in toluene, 307.11 K | 0.0498
in toluene, 312.12 K | 0.065
in toluene, 316.4 K | 0.0798
in toluene, 320.95 K | 0.0979
in toluene, 326.54 K | 0.135
